One assay has as its target benzodiazepine receptor. Nature of the assay: Benzodiazepine receptor binding assay ([^3 H]-diazepam). The note with it: [^3 H]-diazepam 1.5 nM, rat brain crude synaptosome membrane, pH 7.4, 0° C., 20 minutes.
The subject of assay [1] is pentylenetetrazole-induced clonic convulsion. Nature of the assay: Activity on pentylenetetrazole-induced clonic convulsion (anti-PTZ activity). In kind it is in vivo, mouse (Std-ddY male). The note with it: Mus musculus, 2 hours before pentylenetetrazole 85 mg/kg s.c., observed 30 minutes, read-out: Number of mice having antagonistic activity/number of test mice (converted); for responders at 10 mg/kg: 10 mg/kg oral; for responders at 50 mg/kg: 50 mg/kg oral; for responders at 2 mg/kg: 2 mg/kg oral; for responders at 20 mg/kg: 20 mg/kg oral. The protocol: Experiment 2 Activity on pentylenetetrazole-induced clonic convulsion (anti-PTZ activity)
The activity on pentylenetetrazole-induced clonic convulsion of the test compound was tested according to the method of E. A. Swinyard (cf. Anticonvulsant Drugs. Mercier, J., Ed., pp. 47-65, Pergamon Press, New York (1973)). In this test, petit real-type antiepileptics and most of benzodiazepine drugs show positive results.
A test compound was administered orally to Std-ddY male mice (weight; 20-25 g, five mice/group). […] When no clonic convulsion was observed, it was determined that the test compound had antagonistic activity.

Regarding `CCc1noc(-c2cc3c([nH]c2=O)CCN(Cc2ccccc2)C3)n1` [Example 142], the IC50 on benzodiazepine receptor was 3.24 nM. For the same molecule, the responders at 10 mg/kg in assay [1] is 80%.

At benzodiazepine receptor, `CC(C)c1nnc(-c2cc3c([nH]c2=O)CCN(Cc2ccccc2)C3)o1` [Example 56] displayed a half-inhibitory concentration (IC50) of 35.1 nM. In addition, the responders at 50 mg/kg in assay [1] was 80%.

As for `COc1nnc(-c2cc3c([nH]c2=O)CCN(Cc2cccc([N+](=O)[O-])c2)C3)o1` [Example 23], the responders at 10 mg/kg in assay [1] is 80%.

On benzodiazepine receptor, `O=c1[nH]c2c(cc1-c1nnc(C3CC3)o1)CN(Cc1cccc(F)c1)CC2` [Example 88] came in with an IC50 of 4.62 nM.

As to `C=C(C)c1nnc(-c2cc3c([nH]c2=O)CCN(Cc2ccccc2)C3)o1` [Example 111, 6-benzyl-3-(5-isopropenyl-1,3,4-oxadazol-2-yl)-5,6,7,8-tetrahydro-1,6-naphthyridin-2(1H)-one], the responders at 50 mg/kg in assay [1] was 100%.

On benzodiazepine receptor, `O=c1[nH]c2c(cc1-c1nc(C3CC3)no1)CN(Cc1cccc(Br)c1)CC2` [Example 156] gave a half-inhibitory concentration (IC50) of 6.68 nM. This lies in the single-digit nanomolar range.

Molecule `CCCc1nc(-c2cc3c([nH]c2=O)CCN(Cc2ccccc2)C3)no1` [Example 125] registered an IC50 at benzodiazepine receptor of 8.63 nM. The IC50 values of the last two molecules are within 1.5-fold of each other.

Turning to `O=c1[nH]c2c(cc1-c1nnc(C(F)(F)F)o1)CN(Cc1ccccc1)CC2` [Example 115], the concentration for half-maximal inhibition (IC50) on benzodiazepine receptor came out at 50.3 nM. This IC50 lies about 5.8-fold higher than the previous one.

On benzodiazepine receptor, `O=c1[nH]c2c(cc1-c1nnc(-c3cccs3)o1)CN(Cc1ccccc1)CC2` [Example 60] registered a concentration for half-maximal inhibition (IC50) of 1.58 nM. Besides, the responders at 50 mg/kg in assay [1] was 100%.

`O=c1[nH]c2c(cc1-c1nnc(C3CC3)o1)CN(Cc1ccc(Cl)cc1)CC2` [Example 82]: the IC50 on benzodiazepine receptor turned out to be 8.98 nM.

In turn, `O=c1[nH]c2c(cc1-c1nnc(C3CC3)o1)CN(Cc1ccccc1)CC2` [Example 55, 6-benzyl-3-(5-cyclopropyl-1,3,4-oxadiazol-2-yl)-5,6,7,8-tetrahydro-1,6-naphthyridin-2(1H)-one] yielded an IC50 at benzodiazepine receptor of 3.91 nM. For the same molecule, in assay [1], the responders at 50 mg/kg was 100%.

On benzodiazepine receptor, `O=c1[nH]c2c(cc1-c1nc(C3CC3)no1)CN(Cc1cccc(Cl)c1)CC2` [Example 153] gave a half-inhibitory concentration (IC50) of 3.51 nM.

Molecule `O=c1[nH]c2c(cc1-c1nc(-c3cccs3)no1)CN(Cc1ccccc1)CC2` [Example 145] had an IC50 on benzodiazepine receptor of 8.64 nM.

Turning to `O=c1[nH]c2c(cc1-c1nnc(C3CC3)o1)CN(Cc1ccccc1F)CC2` [Example 89], the responders at 50 mg/kg in assay [1] was 100%.

Consider `Cc1cccc(CN2CCc3[nH]c(=O)c(-c4nc(C5CC5)no4)cc3C2)c1` [Example 160], for which the IC50 on benzodiazepine receptor was 3.75 nM.

`CCc1nnc(-c2cc3c([nH]c2=O)CCN(Cc2ccccc2)C3)o1` [Example 91] showed an IC50 at benzodiazepine receptor of 23.1 nM. The responders at 50 mg/kg in assay [1] is 100%.

In the case of `COc1nnc(-c2cc3c([nH]c2=O)CCN(Cc2ccccc2C(F)(F)F)C3)o1` [Example 33], the responders at 10 mg/kg in assay [1] is 80%.

As to `CC(C)c1nc(-c2cc3c([nH]c2=O)CCN(Cc2ccccc2)C3)no1` [Example 124], the half-maximal inhibitory concentration (IC50) on benzodiazepine receptor worked out at 5.4 nM. The responders at 10 mg/kg in assay [1] was 60%.

As to `COc1nnc(-c2cc3c([nH]c2=O)CCN(Cc2c(F)cccc2F)C3)o1` [Example 35], the responders at 2 mg/kg in assay [1] was 100%.

Take `COc1nnc(-c2cc3c([nH]c2=O)CCN(Cc2ccccc2Br)C3)o1` [Example 26]: the half-inhibitory concentration (IC50) on benzodiazepine receptor worked out at 14.1 nM. In addition, the responders at 2 mg/kg in assay [1] was 60%.

For `O=c1[nH]c2c(cc1-c1nc(C3CC3)no1)CN(Cc1ccc(Cl)cc1)CC2` [Example 154], the IC50 at benzodiazepine receptor was 11 nM.

In the case of `COc1nnc(-c2cc3c([nH]c2=O)CCN(Cc2cccc(F)c2F)C3)o1` [Example 29], the IC50 at benzodiazepine receptor was determined as 5.46 nM.

`O=c1[nH]c2c(cc1-c1nnc(-c3ccco3)o1)CN(Cc1ccccc1)CC2` [Example 64] yielded an IC50 at benzodiazepine receptor of 4.09 nM. The IC50 values of the last two molecules are within 1.5-fold of each other.

Take `Cc1ccccc1CN1CCc2[nH]c(=O)c(-c3nc(C4CC4)no3)cc2C1` [Example 159]: the 50% inhibitory concentration (IC50) on benzodiazepine receptor was determined as 8.15 nM.

On to `COc1ccc(CN2CCc3[nH]c(=O)c(-c4nnc(C5CC5)o4)cc3C2)cc1` [Example 85], for which the responders at 50 mg/kg in assay [1] was 80%.

`Cc1cc(-c2nnc(-c3cc4c([nH]c3=O)CCN(Cc3ccccc3)C4)o2)no1` [Example 66] had a 50% inhibitory concentration (IC50) at benzodiazepine receptor of 10.1 nM. In assay [1], the responders at 50 mg/kg is 100%.

As to `O=c1[nH]c2c(cc1-c1nc(C3CC3)no1)CN(Cc1ccccc1)CC2` [Example 143], at benzodiazepine receptor, the IC50 came to 2.19 nM. Also, in assay [1], the responders at 10 mg/kg is 60%.

`COc1nnc(-c2cc3c([nH]c2=O)CCN(Cc2cc(F)ccc2Cl)C3)o1` [Example 52] registered an IC50 at benzodiazepine receptor of 19.3 nM. Besides, the responders at 10 mg/kg in assay [1] was 100%.

As to `COc1nnc(-c2cc3c([nH]c2=O)CCN(Cc2ccccc2Cl)C3)o1` [Example 10], at benzodiazepine receptor, the IC50 amounted to 6.95 nM. Moreover, the responders at 20 mg/kg in assay [1] was 100%.

On benzodiazepine receptor, `COc1nnc(-c2cc3c([nH]c2=O)CCN(Cc2ccccc2)C3)o1` [Example 6, 6-benzyl-3-(5-methoxy-1,3,4-oxadiazol-2-yl)-5,6,7,8-tetrahydro-1,6-naphthyridine-2(1H)-one] yielded a half-inhibitory concentration (IC50) of 9.91 nM. Further, in assay [1], the responders at 50 mg/kg is 100%.

For `CC(C)c1noc(-c2cc3c([nH]c2=O)CCN(Cc2ccccc2)C3)n1` [Example 146], the IC50 on benzodiazepine receptor amounted to 9.11 nM.

For the molecule `O=c1[nH]c2c(cc1-c1noc(-c3cccs3)n1)CN(Cc1ccccc1)CC2` [Example 123], the IC50 on benzodiazepine receptor amounted to 12.5 nM.

For the molecule `CCCc1noc(-c2cc3c([nH]c2=O)CCN(Cc2ccccc2)C3)n1` [Example 147], the half-inhibitory concentration (IC50) at benzodiazepine receptor is 2.5 nM.

On benzodiazepine receptor, `Cc1nc(-c2cc3c([nH]c2=O)CCN(Cc2ccccc2)C3)no1` [Example 122] had a half-inhibitory concentration (IC50) of 5.96 nM. Further, in assay [1], the responders at 10 mg/kg is 100%.

At benzodiazepine receptor, `O=c1[nH]c2c(cc1-c1nc(C3CC3)no1)CN(Cc1ccccc1F)CC2` [Example 157] registered a half-inhibitory concentration (IC50) of 2.71 nM.

For the molecule `CCc1nc(-c2cc3c([nH]c2=O)CCN(Cc2ccccc2)C3)no1` [Example 120], on benzodiazepine receptor, the half-maximal inhibitory concentration (IC50) stood at 4.4 nM. For the same molecule, in assay [1], the responders at 10 mg/kg is 90%.

In turn, `COc1cccc(CN2CCc3[nH]c(=O)c(-c4nnc(C5CC5)o4)cc3C2)c1` [Example 86] had a half-inhibitory concentration (IC50) at benzodiazepine receptor of 7.91 nM.

The molecule `O=c1[nH]c2c(cc1-c1nc(C3CC3)no1)CN(Cc1ccccc1Cl)CC2` [Example 152] came in with an IC50 at benzodiazepine receptor of 4.9 nM.

Consider `Cc1ccc(CN2CCc3[nH]c(=O)c(-c4nnc(C5CC5)o4)cc3C2)cc1` [Example 80], for which the responders at 50 mg/kg in assay [1] was 80%.

For `COc1nnc(-c2cc3c([nH]c2=O)CCN(Cc2cccc(Cl)c2F)C3)o1` [Example 32], at benzodiazepine receptor, the half-inhibitory concentration (IC50) was found to be 2.49 nM.

`O=c1[nH]c2c(cc1-c1nc(C3CC3)no1)CN(Cc1cccc(F)c1)CC2` [Example 158] displayed a 50% inhibitory concentration (IC50) on benzodiazepine receptor of 3.73 nM.

`O=c1[nH]c2c(cc1-c1nc(C3CC3)no1)CN(Cc1ccccc1Br)CC2` [Example 155] showed an IC50 at benzodiazepine receptor of 6.08 nM.

For `O=c1[nH]c2c(cc1-c1noc(C3CC3)n1)CN(Cc1ccccc1)CC2` [Example 119, 6-benzyl-3-(5-cyclopropyl-1,2,4-oxadiazol-3-yl)-5,6,7,8-tetrahydro-1,6-naphthyridin-2(1H)-one], the half-inhibitory concentration (IC50) on benzodiazepine receptor is 1.29 nM. Also, the responders at 10 mg/kg in assay [1] was 100%.

For `COc1nnc(-c2cc3c([nH]c2=O)CCN(Cc2cc(F)ccc2Br)C3)o1` [Example 38], the half-inhibitory concentration (IC50) on benzodiazepine receptor was determined as 4.55 nM. Further, the responders at 2 mg/kg in assay [1] is 80%.

Regarding `O=c1[nH]c2c(cc1-c1nc(-c3ccccc3)no1)CN(Cc1ccccc1)CC2` [Example 141, 6-benzyl-3-(3-phenyl-1,2,4-oxadiazol-5-yl)-5,6,7,8-tetrahydro-1,6-naphthyridin-2(1H)-one], the concentration for half-maximal inhibition (IC50) on benzodiazepine receptor was 22.8 nM.

In the case of `COc1nnc(-c2cc3c([nH]c2=O)CCN(Cc2cccc(F)c2)C3)o1` [Example 13], the responders at 20 mg/kg in assay [1] was 100%.

The molecule `O=c1[nH]c2c(cc1-c1nnc(-c3ccccc3)o1)CN(Cc1ccccc1)CC2` [Example 58] yielded an IC50 on benzodiazepine receptor of 14.6 nM. This lies in the double-digit nanomolar range.

Take `O=c1[nH]c2c(cc1-c1nnc(C3CC3)o1)CN(Cc1cccc(Cl)c1)CC2` [Example 83]: the responders at 50 mg/kg in assay [1] was 100%.

Turning to `CCCc1nnc(-c2cc3c([nH]c2=O)CCN(Cc2ccccc2)C3)o1` [Example 62], at benzodiazepine receptor, the IC50 worked out at 13.8 nM.

On to `COc1cccc(CN2CCc3[nH]c(=O)c(-c4nnc(OC)o4)cc3C2)c1` [Example 17], for which the responders at 20 mg/kg in assay [1] is 60%.

`Cc1cccc(CN2CCc3[nH]c(=O)c(-c4nnc(C5CC5)o4)cc3C2)c1` [Example 81]: on benzodiazepine receptor, the IC50 turned out to be 5.17 nM.

On to `COc1nnc(-c2cc3c([nH]c2=O)CCN(Cc2ccc(Cl)cc2)C3)o1` [Example 7], for which the IC50 at benzodiazepine receptor came to 13.5 nM. Besides, in assay [1], the responders at 50 mg/kg is 100%.

Take `O=c1[nH]c2c(cc1-c1nnc(-c3ccccc3Cl)o1)CN(Cc1ccccc1)CC2` [Example 61]: on benzodiazepine receptor, the IC50 is 6.25 nM.

For the molecule `COc1nnc(-c2cc3c([nH]c2=O)CCN(Cc2c(F)ccc(F)c2F)C3)o1` [Example 36], the responders at 2 mg/kg in assay [1] is 100%.

In turn, `O=c1[nH]c2c(cc1-c1noc(-c3ccccc3)n1)CN(Cc1ccccc1)CC2` [Example 121] returned an IC50 at benzodiazepine receptor of 62.4 nM.

The record behind these values is US5367078A, “3-oxadiazolyl-1,6-naphthyridine derivatives” (Dainippon Pharmaceutical Co., Ltd., priority 1992, dated 1994).
